Experiments:
[1] = system: KRAS G12D mutated AGS human gastric adenocarcinoma cells; test: Proliferation inhibition of KRAS G12D mutant AGS cells, another experiment with similar protocol (includes MRTX1133); assay type: cell-based; settings: Homo sapiens
Procedure: In another experiment, using a protocol similar to the one described above, the inhibitory activity of some representative compounds of the present invention against KRAS G12D mutated AGS human gastric adenocarcinoma cells was determined.
The synthesis of compound MRTX1133 was performed according to the method described in J. Med. Chem. 2022, 65, 4, 3123-3133.

[2] = Mouse pharmacokinetics (IV and PO); assay type: in vivo; settings: 10 mg/kg, male CD-1 mice, PO (gavage), 1 mg/mL at 10 mL/kg, plasma
Procedure: The pharmacokinetic properties of the compounds of the present invention were evaluated through a mouse pharmacokinetic experiment.
Male CD-1 mice, aged 6-8 weeks old, were purchased from Zhejiang Vital River Laboratory Animal Co., Ltd.
IV administration group: The compound was formulated into a sodium acetate buffer solution (10 mM sodium acetate solution, adjusted to pH 4.0 with acetic acid) containing 20% Captisol (sulfobutyl β-cyclodextrin) so that the final concentration of each compound was 0.6 mg/mL. The drug formulation was injected into the tail vein of CD-1 mice at an injection volume of 5 mL/kg. After administration, blood samples were collected from the submandibular vein or by other appropriate methods at 5 min, 15 min, 30 min, 1 h, 2 h, 4 h, 6 h, 8 h, and 24 h. The blood samples were centrifuged at a low temperature for 6 minutes, and the plasma was collected and stored at −80° C. for testing. The PO administration group formulated the compound into a solvent of 0.5% Tween 80+99.5% (0.5% MC (400 cp)) or 5% DMSO+95% (0.5% MC (400 cp)) so that the final concentration of each compound was 1 mg/mL. The drug formulation was administered to CD-1 mice by gavage at a volume of 10 mL/kg. After administration, blood samples were collected from the submandibular vein or by other appropriate methods at 15 min, 30 min, 1 h, 2 h, 4 h, 6 h, 8 h, and 24 h. The blood samples were centrifuged at a low temperature for 6 minutes, and the plasma was collected and stored at −80° C. for testing.
10 μL of the plasma sample was taken, and 200 μL of methanol containing an internal standard was added as a precipitating agent to precipitate plasma proteins and extract the compounds to be tested in the plasma. After centrifugation at a low temperature, 10 μL of the supernatant was injected, and the drug blood concentration was analyzed by LC-MS/MS. The pharmacokinetic parameters were calculated using Winnonlin based on the drug concentration data at different time points.

[3] = system: human pancreatic cancer cells HPAC (carrying KRas G12D mutant protein); test: In vivo pharmacodynamics, subcutaneous xenograft of human pancreatic cancer cells HPAC; settings: NOD/SCID mice, 50 mpk, PO; for Tumor volume (mm3) (Day 20): BID × 21; for TGI (%): BID × 21, Day 20
Procedure: The following materials were used in this experiment: NOD/SCID mice, 6-8 weeks old, female, Jiangsu Ji Cai Yao Kang Biotechnology Co., Ltd.; HPAC cells (carrying KRas G12D mutant protein, ATCC); Captisol (Wuhan Fengyao Tonghui Chemical Products Co., Ltd., Cas #182410-00-0); Sodium acetate (aladdin); MC (sigma, 9004-67-5).
The experiment was carried out as follows: Female NOD/SCID mice aged 6-8 weeks were subcutaneously inoculated with 1-10^7 HPAC cells on the right posterior side of the back, with an inoculation volume of 0.1 mL. When the tumors grew to an average volume of 150 mm^3, the mice were randomly grouped for administration according to the tumor size and body weight. The day of administration was regarded as day 0. The administration was carried out once a day. The test compound was administered by tail vein injection or gavage, with 5 mice in each group at a dose of 10 mg/kg. The control group was administered with an equal volume of the solvent control by tail vein injection or gavage.
During the experiment, the tumor volume and body weight were measured twice a week. The formula for calculating the tumor volume was: Tumor volume (mm^3)=0.5×(tumor major axis×tumor minor axis^2). The average tumor inhibition rate TGI %=[(average tumor volume of the control group−average initial tumor volume of the control group)−(average tumor volume of the administration group−average initial tumor volume of the administration group)]/(average tumor volume of the control group−average initial tumor volume of the control group).

[4] = system: KRAS-G12D mutated human colon carcinoma cells GP2d; test: Antitumor effect, subcutaneous xenograft of KRAS-G12D mutated human colon carcinoma cells GP2d; assay type: in vivo; settings: BALB/c nude mice, 10 mg/kg, gavage, twice a day; for TGI (%): Day 21
Procedure: GP2d cells were purchased from Nanjing Kebai Biotechnology Co., Ltd. BALB/c nude mice, female, were purchased from Jiangsu GemPharmatech LLC. GP2d cells were cultured in culture medium containing DMEM and 10% FBS. The cells in the logarithmic growth phase were collected and resuspended in PBS to an appropriate concentration for subcutaneous tumor inoculation in mice. The experimental mice were subcutaneously inoculated on the right posterior side of the back. The inoculation dose of GP2d cells was 1×10^7 cells per mouse, and the cells were resuspended in a 1:1 mixture of PBS and Matrigel (the inoculation volume was 0.1 mL). When the average tumor volume grew to 150 mm^3, the mice were randomly grouped for administration according to the tumor size and body weight. Administration was started immediately after grouping, and the day of administration was regarded as day 0. The administration was carried out twice a day by gavage, at a dose of 10 mg/kg or a solvent control (0.5% Tween 80+99.5% of (0.5% MC (400 cp))). During the experiment, the body weight of the mice and the size of the tumors were measured twice a week.
The formula for calculating the tumor size: Tumor volume (mm^3)=0.5×(long diameter of tumor×(short diameter of tumor)^2).
Relative tumor inhibition rate TGI (%): TGI %=[1−(average tumor volume at the end of administration of the treatment group−average tumor volume at the beginning of administration of the treatment group)/(average tumor volume at the end of administration of the vehicle control group −average tumor volume at the beginning of administration of the vehicle control group)]×100%.

## C#Cc1c(F)ccc2cc(O)cc(-c3c(F)cc4c(N5CC6CCC(C5)N6)nc(OC[C@]5(C)CN(C)CC[C@@H]5C(F)F)nc4c3F)c12 (atropisomer, axis not shown; (Ra)) [Example 46-3, (Ra)-4-(4-((1R,5S)-3,8-diazabicyclo[3.2.1]octan-3-yl)-2-(((3S,4S)-4-(difluoromethyl)-1,3-dimethylpiperidin-3-yl)methoxy)-6,8-difluoroquinazolin-7-yl)-5-ethynyl-6-fluoronaphthalen-2-ol]
[1]
  IC50: 7 nM
[2]
  AUC(0-inf): 414 ng·h/mL
  AUC(0-t): 384 ng·h/mL
  half-life: 10.8 h
[3]
  Tumor volume (mm3) (Day 20): 135 mm3
  TGI (%): 102%

## C#Cc1c(F)ccc2cc(O)cc(-c3c(F)cc4c(N5CC6CCC(C5)N6)nc(OC[C@]5(C)CN(C)CC/C5=C\F)nc4c3F)c12 (atropisomer, axis not shown; (Ra)) [Example 77, (Ra)-4-(4-((1R,5S)-3,8-diazabicyclo[3.2.1]octan-3-yl)-6,8-difluoro-2-(((S,E) 4-(fluoromethylene)-1,3-dimethylpiperidin-3-yl)methoxy)quinazolin-7-yl)-5-ethynyl-6-fluoronaphthalen-2-ol]
[1]
  IC50: 4 nM
[3]
  Tumor volume (mm3) (Day 20): 255 mm3
  TGI (%): 83%

## CN1CC/C(=C\F)[C@](C)(COc2nc(N3CC4CCC(C3)N4)c3cc(Cl)c(-c4cccc5sc(N)c(C#N)c45)c(F)c3n2)C1 (single isomer, unassigned) [Example 313-1]
[4]
  Tumor volume (mm3) (Day 21): 256 mm3
  TGI (%): 88%

## [2H]C([2H])([2H])N1CC[C@H](C(F)F)[C@](C)(C([2H])([2H])Oc2nc(N3CC4CCC(C3)N4)c3cc(Cl)c(-c4cccc5sc(N)c(C#N)c45)c(F)c3n2)C1 (single isomer, unassigned) [Example 315-1]
[4]
  Tumor volume (mm3) (Day 21): 325 mm3
  TGI (%): 80%

## CN1CC[C@H](C(F)F)[C@](C)(COc2nc(N3CC4CCC(C3)N4)c3cc(Cl)c(-c4c(F)ccc5sc(N)c(C#N)c45)c(F)c3n2)C1 (single isomer, unassigned) [Example 325-1]
[1]
  IC50: 2 nM
[4]
  Tumor volume (mm3) (Day 21): 228 mm3
  TGI (%): 91%

## C#Cc1c(F)ccc2cc(O)cc(-c3ncc4c(N5C[C@H]6CC[C@@H](C5)N6)nc(OC[C@]5(C)CN(C)CC[C@@H]5C(F)F)nc4c3F)c12 [Example 105, 4-(4-((1R,5S)-3,8-diazabicyclo[3.2.1]octan-3-yl)-2-(((3S,4S)-4-(difluoromethyl)-1,3-dimethylpiperidin-3-yl)methoxy)-8-fluoropyrido[4,3-d]pyrimidin-7-yl)-5-ethynyl-6-fluoronaphthalen-2-ol]
[1]
  IC50: 6 nM
[3]
  Tumor volume (mm3) (Day 20): 122 mm3
  TGI (%): 104%

## C#Cc1c(F)ccc2cc(O)cc(-c3nc(OC)c4c(N5C[C@H]6CC[C@@H](C5)N6)nc(OC[C@]5(C)CN(C)CC[C@@H]5C(F)F)nc4c3F)c12 [Example 261, 4-(4-((1R,5S)-3,8-diazabicyclo[3.2.1]octan-3-yl)-2-(((3S,4S)-4-(difluoromethyl)-1,3-dimethylpiperidin-3-yl)methoxy)-8-fluoro-5-methoxypyrido[4,3-d]pyrimidin-7-yl)-5-ethynyl-6-fluoronaphthalen-2-ol]
[1]
  IC50: 2 nM
[3]
  Tumor volume (mm3) (Day 20): 117 mm3
  TGI (%): 105%

## C#Cc1c(F)ccc2cc(O)cc(-c3nc(OC)c4c(N5C[C@H]6CC[C@@H](C5)N6)nc(OC[C@]5(C)CN(C)CC/C5=C\F)nc4c3F)c12 [Example 265, 4-(4-((1R,5S)-3,8-diazabicyclo[3.2.1]octan-3-yl)-8-fluoro-2-(((S,E)-4-(fluoromethylene)-1,3-dimethylpiperidin-3-yl)methoxy)-5-methoxypyrido[4,3-d]pyrimidin-7-yl)-5-ethynyl-6-fluoronaphthalen-2-ol]
[1]
  IC50: 2 nM
[3]
  Tumor volume (mm3) (Day 20): 113 mm3
  TGI (%): 106%

## [2H]C([2H])([2H])N1CC/C(=C\F)[C@](C)(C([2H])([2H])Oc2nc(N3C[C@H]4CC[C@@H](C3)N4)c3cnc(-c4cc(O)cc5ccc(F)c(C#C)c45)c(F)c3n2)C1 [Example 304, 4-(4-((1R,5S)-3,8-diazabicyclo[3.2.1]octan-3-yl)-8-fluoro-2-(((S,E)-4-(fluoromethylene)-3-methyl-1-(methyl-d3)piperidin-3-yl)methoxy-d2)pyrido[4,3-d]pyrimidin-7-yl)-5-ethynyl-6-fluoronaphthalen-2-ol]
[1]
  IC50: 2 nM
[2]
  AUC(0-inf): 1500 ng·h/mL
  AUC(0-t): 1420 ng·h/mL
  half-life: 8.74 h

## [2H]C([2H])([2H])N1CC/C(=C\F)[C@](C)(COc2nc(N3C[C@H]4CC[C@@H](C3)N4)c3cnc(-c4cc(O)cc5ccc(F)c(C#C)c45)c(F)c3n2)C1 [Example 306, 4-(4-((1R,5S)-3,8-diazabicyclo[3.2.1]octan-3-yl)-8-fluoro-2-(((S,E)-4-(fluoromethylene)-3-methyl-1-(methyl-d3)piperidin-3-yl)methoxy)pyrido[4,3-d]pyrimidin-7-yl)-5-ethynyl-6-fluoronaphthalen-2-ol]
[1]
  IC50: 5 nM
[2]
  AUC(0-inf): 801 ng·h/mL
  AUC(0-t): 759 ng·h/mL
  half-life: 7.17 h

## C#Cc1c(F)ccc2cc(O)cc(-c3nc(C#C)c4c(N5CC6CCC(C5)N6)nc(OC[C@]5(C)CN(C)CC/C5=C\F)nc4c3F)c12 [Example 332]
[1]
  IC50: 1 nM
[4]
  Tumor volume (mm3) (Day 21): 419 mm3
  TGI (%): 70%
